Reference: US20260015350A1, “AZAQUINAZOLINE PAN-KRAS INHIBITORS” (Mirati Therapeutics, Inc., priority 2022, published 2026)
One block for each molecule: values may come before it.

Key:
[1] = tested on: KRas-mediated phosphorylation of ERK in H727 cells; assay: Inhibition of KRas-mediated phosphorylation of ERK (Cisbio HTRF pERK), H727 cells; assay type: cell-based; conditions: Homo sapiens, NCI-H727, H727 cells; HTRF pERK
Outline: (§1)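 Min control wells contained 0.2 uM Trametinib, while test compounds ran as 10 doses (3-fold, top 10 uM; 0.8% DMSO final) on cells for 3 hrs. After 40 mins lysis at 4° C, lysates were probed with HTRF antibodies for 2 hrs at room temperature.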

[2] = tested on: KRas-mediated phosphorylation of ERK in AsPC-1 cells; assay: Inhibition of KRas-mediated phosphorylation of ERK (Cisbio HTRF pERK), AsPC-1 cells; assay type: cell-based; conditions: Homo sapiens, ASPC1, AsPC-1 cells; HTRF pERK
Outline: as §1

[3] = target: T1, KRas^G12R (Homo sapiens, UniProt P01116, G12R); assay: KRas binding assay (TR-FRET tracer displacement), KRas G12R
T1 construct: Biotinylated KRas (corresponding to amino acids 1-169, produced at Accelegan Inc.); biotin (biotinylated); purchased Accelegan Inc
T1 sequence (P01116 1-169 isoform P01116-2 G12R): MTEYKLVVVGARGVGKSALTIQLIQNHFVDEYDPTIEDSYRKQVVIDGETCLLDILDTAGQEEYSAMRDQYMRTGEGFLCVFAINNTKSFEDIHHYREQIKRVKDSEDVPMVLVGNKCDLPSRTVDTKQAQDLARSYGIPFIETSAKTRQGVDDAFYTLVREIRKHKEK

[4] = target: T2, KRas^G12D (Homo sapiens, UniProt P01116, G12D); assay: KRas binding assay (TR-FRET tracer displacement), KRas G12D
T2 construct: Biotinylated KRas (corresponding to amino acids 1-169, produced at Accelegan Inc.); biotin (biotinylated); purchased Accelegan Inc
T2 sequence (P01116 1-169 isoform P01116-2 G12D): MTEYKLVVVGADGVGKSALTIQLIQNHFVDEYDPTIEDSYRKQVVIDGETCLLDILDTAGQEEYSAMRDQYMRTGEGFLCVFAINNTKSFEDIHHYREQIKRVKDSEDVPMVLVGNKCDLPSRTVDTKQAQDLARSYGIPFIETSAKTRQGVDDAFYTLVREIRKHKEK

[5] = target: T3, KRas^G12V (Homo sapiens, UniProt P01116, G12V); assay: KRas binding assay (TR-FRET tracer displacement), KRas G12V
T3 construct: Biotinylated KRas (corresponding to amino acids 1-169, produced at Accelegan Inc.); biotin (biotinylated); purchased Accelegan Inc
T3 sequence (P01116 1-169 isoform P01116-2 G12V): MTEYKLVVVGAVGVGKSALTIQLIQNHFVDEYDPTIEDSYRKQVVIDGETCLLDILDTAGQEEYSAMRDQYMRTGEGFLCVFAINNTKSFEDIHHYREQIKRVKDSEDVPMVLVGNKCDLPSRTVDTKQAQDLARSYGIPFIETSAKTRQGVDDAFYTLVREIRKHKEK

SMILES: CCc1c(F)ccc2cc(O)cc(-c3ncc4c(N5C[C@@H]6[C@@H](CC#N)NC(=O)[C@@H]6C5)nc(OC[C@@]56CCCN5C[C@H](F)C6)nc4c3F)c12 [Example 606, 2-((1R,3aS,6aR)-5-(7-(8-ethyl-7-fluoro-3-hydroxynaphthalen-1-yl)-8-fluoro-2-(((2R,7aS)-2-fluorohexahydro-1H-pyrrolizin-7a-yl)methoxy)pyrido[4,3-d]pyrimidin-4-yl)-3-oxooctahydropyrrolo[3,4-c]pyrrol-1-yl) acetonitrile]
IC50 [1]: > 10000 nM
IC50 [2]: > 10000 nM
IC50 [3]: 71 nM
IC50 [4]: 26 nM
IC50 [5]: 43 nM

SMILES: CCc1c(F)ccc2cc(O)cc(-c3ncc4c(N5CC6(CO)CC(C7CC7)(C5)C6)nc(OC[C@@]56CCCN5C[C@H](F)C6)nc4c3F)c12 [Example 613, 4-(4-(1-cyclopropyl-5-(hydroxymethyl)-3-azabicyclo[3.1.1]heptan-3-yl)-8-fluoro-2-(((2R,7aS)-2-fluorohexahydro-1H-pyrrolizin-7a-yl)methoxy)pyrido[4,3-d]pyrimidin-7-yl)-5-ethyl-6-fluoronaphthalen-2-ol]
IC50 [1]: > 10000 nM
IC50 [2]: > 10000 nM
IC50 [3]: 27500 nM
IC50 [4]: 54800 nM
IC50 [5]: 21800 nM

SMILES: CCc1c(F)ccc2cc(O)cc(-c3ncc4c(N5CC[C@@H]6C(=O)NC(=O)[C@@H]6CC5)nc(OC[C@@]56CCCN5C[C@H](F)C6)nc4c3F)c12 [Example 614, (3aR,8aS)-6-(7-(8-ethyl-7-fluoro-3-hydroxynaphthalen-1-yl)-8-fluoro-2-(((2R,7aS)-2-fluorohexahydro-1H-pyrrolizin-7a-yl)methoxy)pyrido[4,3-d]pyrimidin-4-yl)hexahydropyrrolo[3,4-d]azepine-1,3(2H,3aH)-dione]
IC50 [1]: > 10000 nM
IC50 [2]: > 10000 nM
IC50 [3]: 701 nM
IC50 [4]: 805 nM
IC50 [5]: 398 nM

SMILES: CCc1c(F)ccc2cc(O)cc(-c3ncc4c(N5CCCC(C6CCC(=O)N6)C5)nc(OC[C@@]56CCCN5C[C@H](F)C6)nc4c3F)c12 (stereo partly drawn) [Example 620, 5-(1-(7-(8-ethyl-7-fluoro-3-hydroxynaphthalen-1-yl)-8-fluoro-2-(((2R,7aS)-2-fluorohexahydro-1H-pyrrolizin-7a-yl)methoxy)pyrido[4,3-d]pyrimidin-4-yl)piperidin-3-yl)pyrrolidin-2-one]
IC50 [1]: 6800 nM
IC50 [2]: 9680 nM
IC50 [3]: 376 nM
IC50 [4]: 495 nM
IC50 [5]: 248 nM

SMILES: CCc1c(F)ccc2cc(O)cc(-c3ncc4c(N5CC6CN(C7COC7)CC6C5)nc(OC[C@@]56CCCN5C[C@H](F)C6)nc4c3F)c12 (stereo partly drawn) [Example 621, 5-ethyl-6-fluoro-4-(8-fluoro-2-(((2R,7aS)-2-fluorohexahydro-1H-pyrrolizin-7a-yl)methoxy)-4-(5-(oxetan-3-yl)hexahydropyrrolo[3,4-c]pyrrol-2(1H)-yl)pyrido[4,3-d]pyrimidin-7-yl)naphthalen-2-ol]
IC50 [1]: > 10000 nM
IC50 [2]: > 10000 nM
IC50 [3]: 3490 nM
IC50 [4]: 891 nM
IC50 [5]: 1290 nM

SMILES: CCc1c(F)ccc2cc(O)cc(-c3ncc4c(N5CCCC6(CCS6(=O)=O)C5)nc(OC[C@@]56CCCN5C[C@H](F)C6)nc4c3F)c12 (stereo partly drawn) [Example 628, 6-(7-(8-ethyl-7-fluoro-3-hydroxynaphthalen-1-yl)-8-fluoro-2-(((2R,7aS)-2-fluorohexahydro-1H-pyrrolizin-7a-yl)methoxy)pyrido[4,3-d]pyrimidin-4-yl)-1-thia-6-azaspiro[3.5]nonane 1,1-dioxide]
IC50 [1]: 2810 nM
IC50 [2]: 3260 nM
IC50 [3]: 180 nM
IC50 [4]: 78 nM
IC50 [5]: 107 nM

Continued, values first:

IC50 [1]: > 10000 nM
IC50 [2]: > 10000 nM
IC50 [3]: 453 nM
IC50 [4]: 1630 nM
IC50 [5]: 590 nM
SMILES: CCc1c(F)ccc2cc(O)cc(-c3ncc4c(N5CCC6(CC5)CC[S+]6[O-])nc(OC[C@@]56CCCN5C[C@H](F)C6)nc4c3F)c12 (stereo partly drawn) [Example 603, 7-(7-(8-ethyl-7-fluoro-3-hydroxynaphthalen-1-yl)-8-fluoro-2-(((2R,7aS)-2-fluorotetrahydro-1H-pyrrolizin-7a(5H)-yl)methoxy)pyrido[4,3-d]pyrimidin-4-yl)-1-thia-7-azaspiro[3.5]nonane 1-oxide]

IC50 [1]: 1950 nM
IC50 [2]: 4470 nM
IC50 [3]: 127 nM
IC50 [4]: 1530 nM
IC50 [5]: 121 nM
SMILES: CCc1c(F)ccc2cc(O)cc(-c3ncc4c(N5CCC(Cc6ccn(C)n6)C5)nc(OC[C@@]56CCCN5C[C@H](F)C6)nc4c3F)c12 (stereo partly drawn) [Example 611, 5-ethyl-6-fluoro-4-(8-fluoro-2-(((2R,7aS)-2-fluorotetrahydro-1H-pyrrolizin-7a(5H)-yl)methoxy)-4-(3-((1-methyl-1H-pyrazol-3-yl)methyl)pyrrolidin-1-yl)pyrido[4,3-d]pyrimidin-7-yl)naphthalen-2-ol]

IC50 [1]: > 10000 nM
IC50 [2]: > 10000 nM
IC50 [3]: 911 nM
IC50 [4]: 4250 nM
IC50 [5]: 474 nM
SMILES: CCc1c(F)ccc2cc(O)cc(-c3ncc4c(N5CCC6(CC5)OCCC6C#N)nc(OC[C@@]56CCCN5C[C@H](F)C6)nc4c3F)c12 (stereo partly drawn) [Example 612, 8-(7-(8-ethyl-7-fluoro-3-hydroxynaphthalen-1-yl)-8-fluoro-2-(((2R,7aS)-2-fluorohexahydro-1H-pyrrolizin-7a-yl)methoxy)pyrido[4,3-d]pyrimidin-4-yl)-1-oxa-8-azaspiro[4.5]decane-4-carbonitrile]

IC50 [1]: > 10000 nM
IC50 [2]: > 10000 nM
IC50 [3]: 139 nM
IC50 [4]: 377 nM
IC50 [5]: 68 nM
SMILES: CCc1c(F)ccc2cc(O)cc(-c3ncc4c(N5C[C@@H]6[C@@H](C(N)=O)NC(=O)[C@@H]6C5)nc(OC[C@@]56CCCN5C[C@H](F)C6)nc4c3F)c12 [Example 622, (3aS,6aR)-5-(7-(8-ethyl-7-fluoro-3-hydroxynaphthalen-1-yl)-8-fluoro-2-(((2R,7aS)-2-fluorotetrahydro-1H-pyrrolizin-7a(5H)-yl)methoxy)pyrido[4,3-d]pyrimidin-4-yl)-3-oxooctahydropyrrolo[3,4-c]pyrrole-1-carboxamide]

IC50 [1]: > 10000 nM
IC50 [2]: > 10000 nM
IC50 [3]: 23600 nM
IC50 [4]: 98800 nM
IC50 [5]: 43000 nM
SMILES: CCc1c(F)ccc2cc(O)cc(-c3ncc4c(N5CCC(C)(C)SC(C)(C)C5)nc(OC[C@@]56CCCN5C[C@H](F)C6)nc4c3F)c12 [Example 626, 5-ethyl-6-fluoro-4-(8-fluoro-2-(((2R,7aS)-2-fluorohexahydro-1H-pyrrolizin-7a-yl)methoxy)-4-(2,2,7,7-tetramethyl-1,4-thiazepan-4-yl)pyrido[4,3-d]pyrimidin-7-yl)naphthalen-2-ol]

IC50 [1]: 4560 nM
IC50 [2]: > 10000 nM
IC50 [3]: 27 nM
IC50 [4]: 35 nM
IC50 [5]: 12 nM
SMILES: CCc1c(F)ccc2cc(O)cc(-c3ncc4c(N5CCCCC(P(C)(C)=O)C5)nc(OC[C@@]56CCCN5C[C@H](F)C6)nc4c3F)c12 (stereo partly drawn) [Example 627, (1-(7-(8-ethyl-7-fluoro-3-hydroxynaphthalen-1-yl)-8-fluoro-2-(((2R,7aS)-2-fluorohexahydro-1H-pyrrolizin-7a-yl)methoxy)pyrido[4,3-d]pyrimidin-4-yl)azepan-3-yl)dimethylphosphine oxide]
